# Test results reported in patent publication US4755514A, “Phenylpyrazine derivatives and thrombolytic agent” (Suntory Limited, priority 1985, dated 1988).
# Key:
# [1] = tested on: pulmonary embolism induced by adenosine-5'-diphosphate sodium salt (ADP 2Na); test: prevention of pulmonary embolic death in mice (ADP 2Na injection); format: in vivo, Male ddY mice; conditions: 300 mg/kg peroral; for Number of animals dying within 3 minutes after injection/Number of animals in test, ADP 2Na: 3 h before 30 mg/kg ADP 2Na i.v., control: 6/6 died; for thrombolytic effects compared with Ticlopidine: from Table 1 (ADP 2Na and collagen), mice
# [2] = tested on: pulmonary embolism induced by collagen; test: prevention of pulmonary embolic death in mice (collagen injection); format: in vivo, Male ddY mice; conditions: 300 mg/kg peroral, 3 h before collagen i.v.; control: 6/6 died
# Procedure: The following tests were conducted to evaluate the effect of the claimed compounds in the prevention of pulmonary embolic death in mice.
# Each of the compounds being tested was suspended in 0.5% carboxymethyl cellulose and administered perorally at a dosage of 300 mg/kg (0.1 ml/10 g body weight).
# Male ddY mice weighing 18-20 g were subjected to the test after being starved overnight.
# Three hours after oral administration of a selected test compound to the mice, 30 mg/kg of adenosine-5'-diphosphate sodium salt (Sigma Chemical Co., Grade IX) or collagen was injected through their tail veins. The number of mice which died of pulmonary embolism within 3 minutes after the intravenous injections was counted.
# The adenosine-5'-diphosphate sodium salt (ADP 2Na) was in the form of a solution in physiological saline at a concentration of 300 mg/10 ml. The collagen was administered in the form of a solution which was prepared by the following procedure: 25 mg of collagen was uniformly sonicated in a solution containing 25 mmol of tris-HCl and 130 mmol of sodium chloride (pH: 7.3), and the resultant dispersion was incubated at 37° C. for 45 minutes to form a polymer (after incubation, the collagen solution was kept in ice-water until it was used).
# As a control, 0.5% carboxymethyl cellulose (10 ml/kg) was administered through tail veins.
# mice = tested on: mice; set-up: species or system ddY male mice; conditions: mouse, in vivo
# Procedure: The following acute toxicity test was conducted on mice:
# Animal: Five-week old ddY male mice (wt: 21-27 g) in groups of 6.
# Method: The mice were starved overnight and the compound prepared in Example 6 was administered perorally in an amount of 0.1 ml/10 g body weight after it was suspended in 0.5% carboxymethyl cellulose sodium salt (CMC-Na). As a control, 0.5% CMC-Na solution was administered.
Compound,"Number of animals dying within 3 minutes after injection/Number of animals in test, ADP 2Na [1]","Number of animals dying within 3 minutes after injection/Number of animals in test, Collagen [2]",thrombolytic effects compared with Ticlopidine [1],animals that died at the dosage levels used (mice),changes in the general condition of the mice (mice)
"Clc1ccccc1-c1cnccn1 [Example 7, 2-(2-chlorophenyl)pyrazine]",5/10,6/9,–,–,–
"COc1ccc(-c2cnccn2)cc1 [Example 3, 2-(4-methoxyphenyl)pyrazine]",4/7,6/8,–,–,–
"Clc1ccc(-c2cnccn2)cc1 [Example 1, 2-(4-chlorophenyl)pyrazine]",4/9,2/8,"equal to or greater than the levels achieved by a known thrombolytic agent, Ticlopidine",–,–
"Clc1cccc(-c2cnccn2)c1 [Example 4, 2-(3-chlorophenyl)pyrazine]",5/10,6/10,–,–,–
"Cc1ccc(-c2cnccn2)cc1 [Example 2, 2-(4-methylphenyl)pyrazine]",3/7,7/8,–,–,–
"Clc1ccc(-c2cnccn2)c(Cl)c1 [Example 5, 2-(2,4-dichlorophenyl)pyrazine]",6/10,4/10,–,–,–
"Clc1ccc(-c2cnccn2)cc1Cl [Example 6, 2-(3,4-dichlorophenyl)pyrazine]",3/10,4/10,"equal to or greater than the levels achieved by a known thrombolytic agent, Ticlopidine",none of the animals treated with the compound of Example 6 died,No apparent changes were observed
"Oc1ccc(-c2cnccn2)cc1 [Example 8, 2-(4-hydroxyphenyl)pyrazine]",4/7,7/8,–,–,–
